14 molecules from patent US20220202963A1, “RADIOLABELED COMPOUNDS” (Hoffmann-La Roche Inc., priority 2019, published 2022) can be followed below.

Assay [1] deals with T1, MAGL (Mus musculus, UniProt O35678).
T1 sequence (O35678 1-303): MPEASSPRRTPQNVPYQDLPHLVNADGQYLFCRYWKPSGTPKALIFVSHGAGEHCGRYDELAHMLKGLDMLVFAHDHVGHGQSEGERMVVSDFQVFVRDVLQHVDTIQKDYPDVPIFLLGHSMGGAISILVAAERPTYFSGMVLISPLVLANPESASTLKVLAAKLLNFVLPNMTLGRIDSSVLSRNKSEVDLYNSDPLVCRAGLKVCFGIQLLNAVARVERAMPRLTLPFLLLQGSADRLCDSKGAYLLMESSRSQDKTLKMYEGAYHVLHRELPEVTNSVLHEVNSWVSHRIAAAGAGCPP
Kind of assay: In vitro autoradiography of 3H ligands on sagittal mouse brain sections (MAGL WT and ko). The following applies: 1 nM radioligand, 30 min; for binding on wt tissue samples (autoradiography): MAGL WT mouse brain sections; for binding on MAGL ko tissue sections (autoradiography; selectivity, non-specific binding): MAGL ko mouse brain sections.
Experimental: Receptor autoradiography was performed on sagittal sections of fresh-frozen brains from MAGL WT and ko mice (C57BL6/6NTac-Mgllem4993_02Tac). Tissue sections (10 μm) from brain specimens were cut in a cryostat (Leica CM3050) at −17° C. chamber temperature and −15° C. object temperature and thaw-mounted on microscope glass slides (HistoBond, Paul Marienfeld GmbH, Lauda-Königshofen, Germany). Brain sections were incubated for 30 min in 50 mM Tris-HCl buffer pH 7.4 with 0.1% BSA at RT containing 1 nM of the radioligand. Sections were rinsed three times for 10 min in ice-cold 50 mM Tris-HCl buffer, followed by three dips into ice-cold H2O and air-dried at 4° C. before being exposed to tritium-sensitive imaging plates (BAS-IP TR2025, Fujifilm, Dielsdorf, Switzerland) with a tritium microscale for 5 days at RT. The imaging plates were scanned with a high-resolution phosphor imager (Fuji BAS-5000, Bucher Biotec AG, Basel, Switzerland) and the binding intensity for selected brain areas was quantified using an MCID M2 image analysis software (version 7; InterFocus Imaging GmbH, Mering, Germany).

The target in assay [2] is T2, MAGL (Homo sapiens, UniProt Q99685).
T2 sequence (Q99685 1-303): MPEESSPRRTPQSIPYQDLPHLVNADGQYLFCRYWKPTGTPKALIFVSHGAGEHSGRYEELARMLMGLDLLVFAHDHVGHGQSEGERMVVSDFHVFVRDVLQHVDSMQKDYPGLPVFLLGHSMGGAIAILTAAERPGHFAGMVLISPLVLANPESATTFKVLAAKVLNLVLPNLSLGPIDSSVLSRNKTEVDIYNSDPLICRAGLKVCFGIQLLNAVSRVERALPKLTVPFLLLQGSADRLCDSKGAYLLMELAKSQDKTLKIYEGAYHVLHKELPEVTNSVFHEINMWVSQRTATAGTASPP
Briefly: 2-AG assay (MAGL inhibitory activity, hydrolysis of 2-arachidonoylglycerol followed by mass spectrometry). It is filed as biochemical. As to conditions: 50 pM MAGL, 8 μM 2-arachidonoylglycerol, 15 min pre-incubation, 30 min at RT. The protocol: Compounds were profiled for MAGL inhibitory activity by determining the enzymatic activity by following the hydrolysis of the natural substrate, 2-arachidonoylglycerol, resulting in arachidonic acid, which can be followed by mass spectrometry. This assay is hereinafter abbreviated “2-AG assay”.
A C18 SPE cartridge (G9205A) was used in an acetonitrile/water liquid setup. […] The activity of the compounds was calculated based on the ratio of intensities [arachidonic acid/d8-arachidonic acid].

Assay [3] concerns the target T3, MAGL (Rattus norvegicus, UniProt Q8R431).
T3 sequence (Q8R431 1-303): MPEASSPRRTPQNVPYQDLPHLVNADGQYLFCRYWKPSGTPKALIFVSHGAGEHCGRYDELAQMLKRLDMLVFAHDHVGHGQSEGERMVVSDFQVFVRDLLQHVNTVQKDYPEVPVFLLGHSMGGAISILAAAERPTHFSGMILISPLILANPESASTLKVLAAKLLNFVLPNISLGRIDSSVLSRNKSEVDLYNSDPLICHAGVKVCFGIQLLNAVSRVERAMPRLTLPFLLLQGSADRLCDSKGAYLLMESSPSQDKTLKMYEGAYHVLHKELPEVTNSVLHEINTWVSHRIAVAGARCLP
Briefly: In vitro autoradiography of 11C tracers on sagittal brain sections from Wistar rats.
Experimental: 10 μm sagittal brain sections from Wistar rats were used in in vitro autoradiography. On the day of experimentation, the slices were thawed on ice (10 min) and pre-conditioned in an aqueous buffer containing 30 mM 4-(2-hydroxyethyl)-1-piperazineethanesulfonic acid (HEPES), 1.2 mM MgCl2, 110 mM NaCl, 5 mM KCl, 2.5 mM CaCl2, and 1% fatty-acid-free bovine serum albumin (pH 7.4, 0° C.) for 10 min. The tissue samples were dried in air and subsequently incubated with radiotracer or a mixture of radiotracer and a cold MAGL inhibitor as a blocker at ambient temperature for 30 min. Upon completion of the incubation time, the slices were washed once for 3 min in the aqueous buffer described above, and twice for 2 min in the aqueous buffer described without 1% fatty-acid-free bovine serum albumin. After two quick dips in distilled water, the sections were dried in the air and exposed to a phosphor image plate for 1 h. The films were scanned by a BAS5000 reader (Fuji), and the data were analyzed using AIDA software, version 4.50.010 (Raytest Isotopenmessgeräte GmbH). For [^11C]1, 10 μM SAR127303 and 10 μg/mL 10 were used as blockers.

The target in assay [4] is T3, MAGL. Briefly: In vivo binding to MAGL assessed by ex vivo autoradiography in CD(SD) rats. The arrangement: 10 μm sagittal brain sections from Wistar rats were used in in vitro autoradiography; from tissue; host or cells: rat brain (Wistar sections; CD(SD) rats dosed in vivo). The following applies: male CD(SD) rats, 1 mCi/kg i.v., 90 min post injection; blocked by a high dose of a MAGL inhibitor.
Experimental: Rats were sacrificed by decapitation 90 min after administration of the radioligand. Brains were rapidly removed and divided in two halves along their sagittal axis. The brain halves were frozen in dry ice for following cryosectioning. The hemisphere was placed in a cryostat and sagittal sections (10 μm thickness) were cut. Brain sections were mounted on Histobond glass slides (Marienfeld Laboratories Glassware, Germany), dried at room temperature and exposed, together with tritium microscales, to tritium-sensitive imaging plates (BAS-TR2025) for five days. The imaging plates were scanned in a Fujifilm BAS-5000 high resolution phosphor imager and the amount of [^3H]2 bound to the brain regions of interest was quantified with an MCID M2 image analysis system (Imaging Research Inc., St. Catherines, Ontario, Canada).

For the molecule `COc1ccc(CCC2CN(C(=O)N3CC[C@@H]4OCC(=O)N[C@@H]4C3)C2)c(C(F)(F)F)c1` [Example [^3H]4, [^3H](4aR,8aS)-6-[3-[2-[4-Methoxy-2-(trifluoromethyl)phenyl]ethyl]azetidine-1-carbonyl]-4,4a,5,7,8,8a-hexahydropyrido[4,3-b][1,4]oxazin-3-one], at MAGL [1], the “binding on wt tissue samples (autoradiography)” value (shortened to “binding on wt tissue samples”) is on record as “Selective binding to MAGL” and the “binding on MAGL ko tissue sections (autoradiography; selectivity, non-specific binding)” value was “absence of binding”.
Molecule `O=C1CO[C@H]2CCN(C(=O)N3CC(c4ccc(C5CCC5)cc4)C3)C[C@H]2N1` [Example 5, (4aR,8aS)-6-[3-(4-Cyclobutylphenyl)azetidine-1-carbonyl]-4,4a,5,7,8,8a-hexahydropyrido[4,3-b][1,4]oxazin-3-one] gave a 50% inhibitory concentration (IC50) against MAGL [2] of 1 nM.
On to `Cc1ccc(CCC2CN(C(=O)N3CC[C@@H]4OCC(=O)N[C@@H]4C3)C2)c(F)c1` [Example 3, (4aR,8aS)-6-[3-[2-(2-Fluoro-4-methyl-phenyl)ethyl]azetidine-1-carbonyl]-4,4a,5,7,8,8a-hexahydropyrido[4,3-b][1,4]oxazin-3-one], for which the half-inhibitory concentration (IC50) against MAGL [2] was found to be 5 nM.
Regarding `Cc1ccc(C(F)=CC2CN(C(=O)N3CC[C@@H]4OCC(=O)N[C@@H]4C3)C2)cc1F` (mixture of isomers) [Example 10, (4aR,8aS)-6-[3-[2-Fluoro-2-(3-fluoro-4-methyl-phenyl)vinyl]azetidine-1-carbonyl]-4,4a,5,7,8,8a-hexahydropyrido[4,3-b][1,4]oxazin-3-one], the IC50 on MAGL [2] was found to be 20 nM.
Molecule `COc1cccc(F)c1CC1CC2(C1)CN(C(=O)N1CC[C@@H]3OCC(=O)N[C@@H]3C1)C2` [Example 2, (4aR,8aS)-6-[6-[(2-Fluoro-6-methoxy-phenyl)methyl]-2-azaspiro[3.3]heptane-2-carbonyl]-4,4a,5,7,8,8a-hexahydropyrido[4,3-b][1,4]oxazin-3-one] showed an IC50 against MAGL [2] of 0.07 nM.
With `Cc1ccc(/C(F)=C\C2CN(C(=O)N3CC[C@@H]4OCC(=O)N[C@@H]4C3)C2)cc1F` [Example 12, (4aR,8aS)-6-[3-[(E)-2-Fluoro-2-(3-fluoro-4-methyl-phenyl)vinyl]azetidine-1-carbonyl]-4,4a,5,7,8,8a-hexahydropyrido[4,3-b][1,4]oxazin-3-one], the midpoint of inhibition at MAGL [2], the IC50, lay at 40 nM.
For `Cc1ccc(CCC2CN(C(=O)N3CC[C@@H]4OCC(=O)N[C@@H]4C3)C2)c(F)c1` [Example [^3H]3, [^3H](4aR,8aS)-6-[3-[2-(2-Fluoro-4-methyl-phenyl)ethyl]azetidine-1-carbonyl]-4,4a,5,7,8,8a-hexahydropyrido[4,3-b][1,4]oxazin-3-one], at MAGL [1], the “binding on wt tissue samples” value is listed as “Selective binding to MAGL” and the “binding on MAGL ko tissue sections (autoradiography; selectivity, non-specific binding)” value was “absence of binding”.
At MAGL [2], `Cc1ccc(/C(F)=C/C2CN(C(=O)N3CC[C@@H]4OCC(=O)N[C@@H]4C3)C2)cc1F` [Example 11, (4aR,8aS)-6-[3-[(Z)-2-Fluoro-2-(3-fluoro-4-methyl-phenyl)vinyl]azetidine-1-carbonyl]-4,4a,5,7,8,8a-hexahydropyrido[4,3-b][1,4]oxazin-3-one] registered a half-maximal inhibitory concentration (IC50) of 90 nM.
`COc1ccc(CCC2CN(C(=O)N3CC[C@@H]4OCC(=O)N[C@@H]4C3)C2)c(C(F)(F)F)c1` [Example 4, (4aR,8aS)-6-[3-[2-[4-Methoxy-2-(trifluoromethyl)phenyl]ethyl]azetidine-1-carbonyl]-4,4a,5,7,8,8a-hexahydropyrido[4,3-b][1,4]oxazin-3-one] gave an IC50 against MAGL [2] of 6 nM.
Consider `COc1ccccc1CC1CC2(C1)CN(C(=O)N1CC[C@@H]3OCC(=O)N[C@@H]3C1)C2` [Example 7, (4aR,8aS)-6-[6-[(2-Methoxyphenyl)methyl]-2-azaspiro[3.3]heptane-2-carbonyl]-4,4a,5,7,8,8a-hexahydropyrido[4,3-b][1,4]oxazin-3-one], for which, at MAGL [2], inhibition was half-maximal at 0.2 nM (IC50).
`O=C1CO[C@H]2CCN(C(=O)N3CC4(CC(Cc5c(F)cccc5F)C4)C3)C[C@H]2N1` [Example 6, (4aR,8aS)-6-[6-[(2,6-Difluorophenyl)methyl]-2-azaspiro[3.3]heptane-2-carbonyl]-4,4a,5,7,8,8a-hexahydropyrido[4,3-b][1,4]oxazin-3-one] came in with an IC50 against MAGL [2] of 0.1 nM.
In the case of `O=C1CO[C@H]2CCN(C(=O)N3CC(c4ccc(C5CCC5)cc4)C3)C[C@H]2N1` [Example [^11C]5, [^11C](4aR,8aS)-6-[3-(4-Cyclobutylphenyl)azetidine-1-carbonyl]-4,4a,5,7,8,8a-hexahydropyrido[4,3-b][1,4]oxazin-3-one], the “binding to MAGL on sagittal rat brain sections (autoradiography)” value on MAGL [3] (Wistar rat brain sections, radiotracer alone, 30 min) is reported as “selectively bind to MAGL”. For the same molecule, the “blocking of binding by cold MAGL inhibitors” value on MAGL [3] (co-incubation with blockers (10 μM SAR127303 and 10 μg/mL 10 for [11C]1; 10 μM SAR127303 and 10 μM PF-06795071 for [11C]5)) is reported as “binding can be blocked”.
With `CC(C)COc1ccc(C2CN(C(=O)N3CC[C@@H]4OCC(=O)N[C@@H]4C3)C2)cc1` [Example 9, (4aR,8aS)-6-[3-(4-isobutoxyphenyl)azetidine-1-carbonyl]-4,4a,5,7,8,8a-hexahydropyrido[4,3-b][1,4]oxazin-3-one], on MAGL [2], it took 1 nM to reach half-maximal inhibition (IC50).
Regarding `COc1cccc(F)c1CC1CC2(C1)CN(C(=O)N1CC[C@@H]3OCC(=O)N[C@@H]3C1)C2` [Example [^3H]2, [^3H](4aR,8aS)-6-[6-[(2-Fluoro-6-methoxy-phenyl)methyl]-2-azaspiro[3.3]heptane-2-carbonyl]-4,4a,5,7,8,8a-hexahydropyrido[4,3-b][1,4]oxazin-3-one], on MAGL [4], the “in vivo binding to MAGL in brain (ex vivo autoradiography)” value was “Selective and specific binding to MAGL”. On MAGL [1], the “binding on wt tissue samples” value is “Selective binding to MAGL” and the “binding on MAGL ko tissue sections (autoradiography; selectivity, non-specific binding)” value is “absence of binding”.

A word on the IC50: it is the concentration needed to halve the response being measured. A lower IC50 goes with inhibition by little substance.
